Data taken from US20230049572A1, “FORMULATION, COMPOSITION OR FOODSTUFF ADDITIVES FOR THE MODIFICATION OF GLYCEMIC RESPONSE METHODS OF MANUFACTURING AND USING THE SAME” (HOOW FOODS PTE. LTD., priority 2019, published 2023).
Where two headings read alike, the source gives them in different places.

Experiments:
[1] = target: T1, bakers yeast a-glucosidase (Saccharomyces cerevisiae, UniProt P53341); experiment: In vitro flavonoid inhibition of alpha-glucosidase (pNPG); type: biochemical
T1 construct: purchased Sigma-Aldrich
T1 sequence (P53341 whole entry): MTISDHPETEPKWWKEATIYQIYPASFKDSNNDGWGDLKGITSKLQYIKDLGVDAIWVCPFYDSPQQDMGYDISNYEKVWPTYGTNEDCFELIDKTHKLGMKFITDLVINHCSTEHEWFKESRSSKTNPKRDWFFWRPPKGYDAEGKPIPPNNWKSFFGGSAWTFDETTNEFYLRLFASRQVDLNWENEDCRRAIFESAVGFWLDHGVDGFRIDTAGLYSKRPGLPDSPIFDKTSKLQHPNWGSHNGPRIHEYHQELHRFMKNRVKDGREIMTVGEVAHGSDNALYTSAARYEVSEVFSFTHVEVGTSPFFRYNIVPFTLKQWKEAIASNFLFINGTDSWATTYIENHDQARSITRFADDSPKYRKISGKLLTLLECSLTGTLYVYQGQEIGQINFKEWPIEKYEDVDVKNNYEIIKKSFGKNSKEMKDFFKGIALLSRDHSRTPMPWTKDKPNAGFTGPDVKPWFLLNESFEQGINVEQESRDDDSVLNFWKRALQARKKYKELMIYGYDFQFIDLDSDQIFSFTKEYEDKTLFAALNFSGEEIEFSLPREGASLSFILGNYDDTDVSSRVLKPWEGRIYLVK
Method: The alpha-glucosidase inhibition was determined using purified alpha-glucosidase from yeast. An alpha-glucosidase reaction mixture contained 2.9 mM p-nitrophenyl-α-d-glucopyranoside (pNPG) (Sigma-Aldrich), 0.25 ml of flavonoid in DMSO and 0.6 U/ml of bakers yeast a-glucosidase (Sigma-Aldrich) in sodium phosphate buffer, pH 6.9. […] The reaction mixtures were incubated at 25° C. for 5 min, after which the reaction was stopped by boiling for 2 min. Absorbance of the resulting p-nitrophenol (pNP) were spectrophotometry determined at 405 nm and was considered directly proportional to the activity of the enzyme. Glucosidase activity inhibition was determined as percentage of control as follows:
In order to eliminate background readings, the absorbance of the flavenoid without substrate and enzyme was subtracted from absorbance of the flavonoid and substrate mixture as follows: Corrected A405 test samples=A405 flavonoid and substrate—A405 flavonoid alone (background).
The activity in controls (with a-glucosidase but without inhibitor) was considered to be 100%. […] Different flavonoids were compared on the basis of their ICso values estimated from the dose response curves.

[2] = system: alpha amylase; experiment: Inhibition of alpha amylase (similar studies); type: biochemical
[3] = per dose / per meal; cited from earlier work
[4] = pNPG 2.9 mM, pH 6.9, 25° C., 5 min, read-out: IC50, inhibition of yeast alpha-glucosidase

SMILES | IC50 [1] [µM] | enzyme inhibition (in words) [1] | inhibition of amylase (in words) [2] | other results
O=c1cc(-c2ccccc2)oc2cc(O)c(O)c(O)c12 [Baicalein] | 58 | – | – | –
O=C(CCc1ccc(O)cc1)c1c(O)cc(O)cc1O [Phloretin] | – | – | – | IC50 [1, 4]: 96 µM
O=c1cc(-c2ccc(O)cc2)oc2cc(O)cc(O)c12 [Apigenin] | 90 | – | – | –
O=C1c2c(O)cc(O)cc2O[C@H](c2cc(O)c(O)c(O)c2)[C@H]1O [Dihydromyricetin, (2R,3R)-3,5,7-Trihydroxy-2-(3,4,5-trihydroxyphenyl)-2,3-dihydrochromen-4-one] | 4 | powerful enzyme inhibitors | effective at inhibiting amylase | –
O=c1c(O)c(-c2ccc(O)c(O)c2)oc2cc(O)cc(O)c12 [Quercetin, 2-(3,4-dihydroxyphenyl)-3,5,7-trihydroxy-4H-chromen-4-one] | – | powerful enzyme inhibitors | effective at inhibiting amylase | –
OC[C@H]1NC[C@H](O)[C@@H](O)[C@@H]1O [1-DNJ, 1-deoxynojirimycin] | – | – | – | upper efficacy limit / saturation dose above which no further reduction in glycemic response is obtained [3]: 250 mg
O=c1cc(-c2ccccc2)oc2cc(O)cc(O)c12 [Chrysin] | – | – | – | inhibition at 200 µM ([1]; read-out: inhibition of yeast alpha-glucosidase at fixed concentration): < 20%
O=c1c(O)c(-c2cc(O)c(O)c(O)c2)oc2cc(O)cc(O)c12 [Myricetin, 3,5,7-Trihydroxy-2-(3,4 trihydroxyphenyl)-4-chromenone] | 3.6 | powerful enzyme inhibitors | effective at inhibiting amylase | –
O=c1cc(-c2ccc(O)c(O)c2)oc2cc(O)cc(O)c12 [Luteolin] | – | – | – | IC50 [1, 4]: 35 µM
